Where no end group is shown, it is not given here.
Key:
[1] = tested on: KRIP-1/TRIP-Br PHD-bromodomain interaction; test: Immunoprecipitation assay of GAL4-KRIP-1/TRIP-Br complex formation (in vitro translated proteins); type: binding; conditions: 25 μM decoy peptides pre-incubated with GAL4-KRIP-1
Procedure: Preparation of proteins by in vitro translation. In vitro translation (IVT) products were synthesized from pcDNA3/TRIP-Br1, pcDNA3/TRIP-Br2 and pBlueScript/GAL4-KRIP-1 using the TNT T7 coupled reticulocyte lysate system (Promega). The in vitro translation reactions were carried out in a total reaction volume of 50 μl by incubating 1.0 μg of the indicated DNA template in nuclease-free water with 30 μl of TNT Quick master mix in the presence of [^35S]-methionine (Met) at 30° C. for 90 minutes.
Immunoprecipitation assay (IP). The binding reactions for IP were performed by incubating 1.5 μl [^35S]-Met labeled GAL4 or GAL4-KRIP-1 IVT products with 3 μl [^35S]-Met labeled TRIP-Br1 or TRIP-Br2 IVT products in 1×IP buffer (Hsu, S. I. H., et al. EMBO J. 20, 2273-2285 (2001)) at 4° C. for 1 h. For the analysis of decoy peptide-mediated blocking activity, the GAL4-KRIP-1 IVT product was pre-incubated with 25 μM decoy peptides at 4° C. for 30 minutes prior to addition of full-length TRIP-Br1 or TRIP-Br2 IVT products. Protein complexes precipitated using agarose-conjugated anti-GAL4 antibody were resolved by SDS-PAGE and then processed for autoradiography.
FIG. 1: TRIP-Br decoy peptides antagonize KRIP-1/TRIP-Br PHD-bromodomain interactions. […] GAL4-KRIP-1 was specifically immunoprecipitated by the agarose-conjugated anti-GAL4 antibody (Lanes 3-5 & 7–10) but not by the non-specific control anti-cyclin E antibody (Lane 6); (B) Antagonism of PHD-bromodomain interactions in vivo. U2OS cells were transiently transfected with 0.4 μg of the indicated GAL4 expression constructs and 1.2 μg of pMT3A/KRIP-1, along with 0.4 μg of the minimal luciferase reporter pG5-GL3 and 0.1 μg of the control reporter pCMV/β-gal. The transfected cells were exposed to either vehicle (0.5% DMSO) or 50 μM of the indicated decoy peptides prior to harvesting for sequential assay of luciferase and galactosidase activity. Fold activation refers to luciferase activity normalized to β-galactosidase activity, and is expressed relative to the activity observed with transfection of the reporter alone. […]

E2F-regulated genes = test: Semi-quantitative RT-PCR of E2F-regulated genes in U2OS cells; type: cell-based, human; conditions: 50 μM, 16 h
Procedure: Semi-quantitative RT-PCR. Total RNA was isolated from U2OS cells or U2OS-ER-E2F-1 cells (grown with or without 1.0 μM OHT and/or 10 μg/ml cycloheximide) using the TRIZOL® Reagent (Life Technologies). Total RNA (4 μg) was reverse transcribed using oligo-dT and M-MLV reverse transcriptase in a total reaction volume of 20 μl. Polymerase Chain Reactions (PCR) were carried out on 3 μl cDNA samples in the presence of […] deoxyribonucleotide triphosphates (dNTPs) and 40 μM of specific primer pairs in a total reaction volume of 50 μ. The cycling profile for PCR was as follow: 30 cycles of denaturation (94° C., 30 sec), annealing (51° C., 30 sec) and extension (72° C., 2 min), with a 2-minute initial denaturation step at 94° C. and a 10-minute terminal polishing step at 72° C. Sequences of gene-specific primers are available upon request. PCR amplification products were analyzed by agarose gel electrophoresis.
(§1) FIG. 3: Analysis of E2F-responsive transcription in U2OS cells in response to decoy peptide treatment. (A) β-galactosidase/Luciferase assay of U2OS cells co-transfected with 0.1 μg of pCMV/β-galactosidase and 7.5 μg of the indicated luciferase reporter plasmids. Promoter activity of vehicle-treated samples was normalized to 100% and the activities of the peptide-treated samples were expressed relative to the vehicle-treated control. Values represent the average +/− standard deviation of at least two independent experiments; (B) Semi-quantitative RT-PCR analysis on total RNA for dhfr, cyclin-E, cyclin A2, PCNA, DNA Pola and cdc2 expression in U2OS cells exposed for 16 h to either vehicle (0.5% DMSO) or 50 μM of the indicated decoy peptides. H-actin was included as an internal control.

[2] = tested on: minimal luciferase reporter (pGL3-TATA-Luc); test: TATA-containing minimal luciferase reporter assay in U2OS cells; type: cell-based, human; conditions: 50 μM, 5 h
Procedure: DNA Transfection and Sequential β-Galactosidase/Luciferase Assay. For luciferase reporter assays, U2OS cells were cultured in 6-well dishes and transfected 24 h later with various reporter plasmids by the calcium precipitation method as previously described (Martin, K., et al. Nature 375, 691-694 (1995)). 24 h following precipitate removal, cells were exposed for 5 h to either vehicle (0.5% DMSO) or 50 μM of decoy peptide, prior to harvesting. Cells were scraped in 200 μl of lysis buffer and a single 10 μl aliquot of lysate was immediately used for sequential measurement of β-galactosidase and luciferase activity using the Dual Light System (Tropix). For protein overexpression experiments, U2OS cells were cultured in 6-well plates at a density of 1×10^5 cells/well and transfected 24 h later with Superfect reagent (QIAGEN).
as §1
The PHD-bromodomain-interacting function of TRIP-Br proteins co-regulate E2F-dependent transcriptional activity in vivo. […] U2OS cells were chosen for this assay because they express functional E2F-1, DP-1, Rb and detectable levels of endogenous TRIP-Br1 (as assessed by Western blot analysis using a rabbit polyclonal anti-TRIP-Br1 antibody (Hsu, S. I. H., et al. EMBO J 20, 2273-2285 (2001)); data not shown). […]

Chain of KRIP-1/TRIP-Br PHD-bromodomain interaction (Q62318 621-811 limits assumed): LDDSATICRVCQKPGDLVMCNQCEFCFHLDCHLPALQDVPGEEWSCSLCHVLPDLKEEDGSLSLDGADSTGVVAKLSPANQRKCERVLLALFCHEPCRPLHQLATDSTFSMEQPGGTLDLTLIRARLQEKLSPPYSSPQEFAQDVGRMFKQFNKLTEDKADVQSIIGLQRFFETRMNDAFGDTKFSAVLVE

Sequence | GAL4-KRIP-1/TRIP-Br complex formation (co-IP of TRIP-Br1 or TRIP-Br2) [1] | cdc2 mRNA transcript level (E2F-regulated genes) | transcriptional activity of PCNA gene (E2F-regulated genes) | transcriptional activity of cyclin A2 gene (E2F-regulated genes) | transcriptional activity of cyclin-E gene (E2F-regulated genes) | transcriptional activity of the minimal reporter [2] | expression profile of the genes under investigation relative to vehicle (E2F-regulated genes; six E2F-regulated genes) | DNA Polα mRNA expression level (E2F-regulated genes) | dhfr mRNA expression level (E2F-regulated genes)
ERQIKIWFQNRRMKWKKATGCLLDDGLEGLFEDID (ERQIKIWFQNRRMKWKKATGCLLDDGLEGLFEDID-NH2) [*Br1] | dramatically reduced the ability of GAL4-KRIP-1 to co-IP TRIP-Br1 or TRIP-Br2 | significant down regulation | unaffected | unaffected | unaffected | slight activation |  |  | 
ERQIKIWFQNRRMKWKKGLDEDGLLLFCEGDTIAD (Peptide containing penetratin sequence from Drosophila and random peptide sequence) [*SCR, reference compound] | did not affect GAL4-KRIP-1/TRIP-Br complex formation |  |  |  |  | slight activation | negligible effects |  | 
ERQIKIWFQNRRMKWKKTGFLTDLTLDDILFADID (ERQIKIWFQNRRMKWKKTGFLTDLTLDDILFADID-NH2) [*Br2] | dramatically reduced the ability of GAL4-KRIP-1 to co-IP TRIP-Br1 or TRIP-Br2 | significant down regulation | unaffected | unaffected | unaffected | did not alter the transcriptional activity of the minimal reporter significantly |  | down-regulated | down-regulated

Reference: patent publication US7223733B2, “Modulation of TRIP-Br function and method of treating proliferative disorders” (National University of Singapore, priority 2004, dated 2007)
